Measurements taken from PubChem BioAssay AID624323 (Sanford-Burnham Center for Chemical Genomics, 2012).
In brackets after ≈: the same amount, converted by molar mass. Activity calls are given as the source filed them. No rule for the calls is given here.

System: aqueous buffer solubility, pH 5.0/6.2/7.4
Experiment: aqueous buffer solubility at three pH values, ADME assay, biophysical, set 2 (AID 624323)
Conditions: at 100 µM, stronger effect = higher value
[1] = measured here: solubility at pH 5.0
[2] = measured here: solubility at pH 6.2

| Structure (SMILES) | solubility | solubility [1] [µg/mL] | solubility [2] [µg/mL] |
| --- | --- | --- | --- |
| CS(=O)(=O)c1ccc(C(=O)OCC(=O)NC23CC4CC(CC(C4)C2)C3)cc1[N+](=O)[O-] | 3 µg/mL (inactive) (≈ 6.87 µM) | 1.8 (≈ 4.12 µM) | 2.5 (≈ 5.73 µM) |
| N#Cc1ccccc1CSc1nc2ncc(Br)cc2[nH]1 | 0.54 µg/mL (inactive) (≈ 1.56 µM) | 0.42 (≈ 1.22 µM) | 0.52 (≈ 1.51 µM) |
| COc1ccccc1N(/N=C1\Sc2ccccc2C1=O)C(C)=O | 2.4 µg/mL (inactive) (≈ 7.35 µM) | 2.4 (≈ 7.35 µM) | 2.7 (≈ 8.27 µM) |
| CCCN(CCC)CCNC(=O)C1CCN(Cc2nc(-c3ccc(Cl)cc3)oc2C)CC1 | > 46 µg/mL | > 46 | > 46 |
| O=[N+]([O-])c1ccc(CN2CCOCCOCCN(Cc3ccc([N+](=O)[O-])cc3)CCOCC2)cc1 | 27.4 µg/mL (≈ 56.1 µM) | > 48 | > 48 |
| Cc1ccc(-n2c(N)c(C#N)c(-c3ccccc3)c(C#N)c2=O)cc1 | 0.84 µg/mL (inactive) (≈ 2.57 µM) | 0.79 (≈ 2.42 µM) | 0.93 (≈ 2.85 µM) |
| COC(=O)c1ccccc1NC(=O)c1ccc(F)cc1 | 0.69 µg/mL (inactive) (≈ 2.53 µM) | 0.85 (≈ 3.11 µM) | 0.9 (≈ 3.29 µM) |
| O=S(=O)(NC1CCCCC1N1CCOCC1)c1ccc(Cl)cc1 (stereo not drawn) | 26.2 µg/mL (≈ 73 µM) | > 36 | > 36 |
| COc1ccc(OC)c(-c2nnc3n2N=C(c2ccc(OC)c(OC)c2)CS3)c1 | 26.1 µg/mL (≈ 63.3 µM) | 28.2 (≈ 68.4 µM) | 29.5 (≈ 71.5 µM) |
| Cc1ccc(C)c(OCCn2cc(C(=O)O)c3ccccc32)c1 | 20.1 µg/mL (≈ 65 µM) | 0.19 (≈ 0.614 µM) | 0.34 (≈ 1.1 µM) |
| NC(=O)C1CCN(c2nc(-c3ccc(Br)cc3)cs2)CC1 | 0.12 µg/mL (inactive) (≈ 0.328 µM) | 0.14 (≈ 0.382 µM) | 0.14 (≈ 0.382 µM) |
| CCOc1ccc(NC(=S)N2CCC(C(O)(c3ccccc3)c3ccccc3)CC2)cc1 | 0.37 µg/mL (inactive) (≈ 0.828 µM) | 1.1 (≈ 2.46 µM) | 0.8 (≈ 1.79 µM) |
| Cc1ccc(NS(=O)(=O)c2ccc3c(c2)CCC(=O)N3)cc1C | 27.1 µg/mL (≈ 82 µM) | 26.2 (≈ 79.3 µM) | > 33 |
| Cc1ccc(S(=O)(=O)n2c(N)nc3ccccc32)cc1 | 2.4 µg/mL (inactive) (≈ 8.35 µM) | 2.3 (≈ 8 µM) | 2.4 (≈ 8.35 µM) |
| O=c1oc2c(O)c(O)cc3c(=O)oc4c(O)c(O)cc1c4c23 | > 30 µg/mL | 7.9 (≈ 26.1 µM) | > 30 |
| Cc1cc(C)n(-c2nc(NCCCO)c3c4c(sc3n2)CCCC4)n1 | 20.7 µg/mL (≈ 57.9 µM) | 17.6 (≈ 49.2 µM) | 20.4 (≈ 57.1 µM) |
| c1ccc(CC2CCN(c3ncnc4sccc34)CC2)cc1 | < 0.01 µg/mL (inactive) | < 0.01 | 0.01 (≈ 0.0323 µM) |
| N#C/C(=C\c1ccc([N+](=O)[O-])o1)c1nc2ccccc2[nH]1 | 0.14 µg/mL (inactive) (≈ 0.5 µM) | 0.08 (≈ 0.285 µM) | 0.12 (≈ 0.428 µM) |
| COc1cc(NC(=O)c2cc(C3CC3)on2)c(OC)cc1Cl | 0.06 µg/mL (inactive) (≈ 0.186 µM) | < 0.01 | 0.05 (≈ 0.155 µM) |
| Cc1cccc(-n2cnc3cc(C(=O)N4CCCCC4)ccc32)c1 | > 32 µg/mL | > 32 | > 32 |
| O=C(O)c1ccccc1OCc1ccccc1Br | > 30 µg/mL | > 30 | > 30 |
| CCCN1CNc2c(c(=O)[nH]c(=S)n2CCc2ccc(OC)c(OC)c2)C1 | > 39 µg/mL | > 39 | > 39 |
| CC(C)C(=O)NC(c1ccco1)c1ccc2cccnc2c1O (stereo not drawn) | 3.3 µg/mL (inactive) (≈ 10.6 µM) | 2.8 (≈ 9.02 µM) | 2.7 (≈ 8.7 µM) |
| COc1ccc(CSc2nc(C)cc(=O)[nH]2)cc1 | > 26 µg/mL | > 26 | > 26 |
| CN(C)C1=C(Cl)C(=O)N(c2ccc(Cl)c(Cl)c2)C1=O | < 0.01 µg/mL (inactive) | 0.06 (≈ 0.188 µM) | 0.12 (≈ 0.375 µM) |
| O=C(O)c1cccnc1SCCc1ccccc1 | > 26 µg/mL | > 26 | > 26 |
